Experimental data as given in patent US20250257051A1, “SUBSTITUTED PYRIMIDINE COMPOUNDS AS TYK2 INHIBITORS” (1910 Genetics Inc., priority 2022, published 2025).
Counter-ions that a name gives are not always drawn. Like-named read-outs stand apart in the source and are kept apart here.

Target: human TYK2 (JH2domain-pseudokinase) (Homo sapiens (Human), UniProt P29597)
Assay: TYK2 JH2 Domain Binding Assay (KINOMEscan competition binding)
Conditions: read-out: TYK JH2 (Kd)
Method: Binding constants for compounds disclosed herein may be determined by the KINOMEscan® assay developed by DiscoveRx. KINOMEscan® is based on a competition binding assay that quantitatively measures the ability of a compound to compete with an immobilized, active-site directed ligand. The assay is performed by combining three components: DNA-tagged kinase; immobilized ligand; and a test compound. The ability of the test compound to compete with the immobilized ligand is measure via quantitative PCR of the DNA tag.
Binding constants for compounds disclosed herein against the JH2 domain are determined by the following protocol for a KINOMEscan® assay (DiscoveRx). A fusion protein of a partial length construct of human TYK2 (JH2domain-pseudokinase) (amino acids G556 to D888 based on reference sequence NP 003322.3) and the DNA binding domain of NFkB is expressed in transiently transfected HEK293 cells. From these HEK 293 cells, extracts are prepared in M-PER extraction buffer (Pierce) in the presence of Protease Inhibitor Cocktail Complete (Roche) and Phosphatase Inhibitor Cocktail Set II (Merck) per manufacturers' instructions. The TYK2 (JH2domain-pseudokinase) fusion protein is labeled with a chimeric double-stranded DNA tag containing the NFkB binding site (5′-GGGAATTCCC-3′) fused to an amplicon for qPCR readout, which is added directly to the expression extract (the final concentration of DNA-tag in the binding reaction is 0.1 nM).
Streptavidin-coated magnetic beads (Dynal M280) are treated with a biotinylated small molecule ligand for 30 minutes at room temperature to generate affinity resins for the binding assays. The liganded beads are blocked with excess biotin and washed with blocking buffer (SeaBlock (Pierce), 1% BSA, 0.05% Tween 20, 1 mM DTT) to remove unbound ligand and to reduce nonspecific binding.
Extracts are used directly in binding assays without any enzyme purification steps at a >10,000-fold overall stock dilution (final DNA tagged enzyme concentration<0.1 nM). Extracts are loaded with DNA-tag and diluted into the binding reaction in a two-step process. First extracts are diluted 1:100 in 1× binding buffer (PBS/0.05% Tween 20/10 mM DTT/0.1% BSA/[…] sonicated salmon sperm DNA) containing 10 nM DNA-tag. This dilution is allowed to equilibrate at room temperature for 15 minutes and then subsequently diluted 1:100 in 1× binding buffer. Test compounds are prepared as 111× stocks in 100% DMSO. Kds are determined using an 11-point 3-fold compound dilution series with three DMSO control points. All compounds for Kd measurements are distributed by acoustic transfer (non-contact dispensing) in 100% DMSO. The compounds are then diluted directly into the assays such that the final concentration of DMSO is 0.9%. All reactions performed in polypropylene 384-well plates. Each is a final volume of 0.02 mL. Assays are incubated with shaking for 1 hour at room temperature. Then the beads are pelleted and washed with wash buffer (lx PBS, 0.05% Tween 20) to remove displaced kinase and test compound. The washed beads are re-suspended in elution buffer (lx PBS, 0.05% Tween 20, 0.5 μM non-biotinylated affinity ligand) and incubated at room temperature with shaking for 30 minutes. The kinase concentration in the eluates is measured by qPCR. qPCR reactions are assembled by adding 2.5 μL of kinase eluate to 7.5 μL of qPCR master mix containing 0.15 μM amplicon primers and 0.15 μM amplicon probe. The qPCR protocol consists of a 10-minute hot start at 95° C., followed by 35 cycles of 95° C. for 15 seconds, 60° C. for 1 minute.
Test compounds are prepared as 111× stocks in 100% DMSO. Kds are determined using an 11-point 3-fold compound dilution series with three DMSO control points. All compounds for Kd measurements are distributed by acoustic transfer (non-contact dispensing) in 100% DMSO. The compounds are then diluted directly into the assays such that the final concentration of DMSO is 0.9%. […]

[1] = KINOMEscan, 11-point 3-fold dilution, top concentration 30,000 nM, Kd measurements in duplicate

Chain of human TYK2 (JH2domain-pseudokinase) (P29597 556-888): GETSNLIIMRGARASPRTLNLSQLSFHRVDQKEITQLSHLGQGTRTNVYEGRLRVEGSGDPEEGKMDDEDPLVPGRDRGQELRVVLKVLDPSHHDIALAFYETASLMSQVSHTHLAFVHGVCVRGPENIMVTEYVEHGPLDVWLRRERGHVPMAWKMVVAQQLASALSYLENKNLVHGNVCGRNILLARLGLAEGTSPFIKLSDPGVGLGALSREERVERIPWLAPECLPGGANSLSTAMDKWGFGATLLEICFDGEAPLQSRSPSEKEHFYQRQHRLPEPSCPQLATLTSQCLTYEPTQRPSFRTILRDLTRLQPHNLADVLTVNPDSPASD

Kd [1] [nM]	Kd (Table 4: pyrimidinyl compound of Formula I versus compounds with a different heteroaryl core) [nM]	Structure (SMILES)
7500	–	COc1ccccc1Nc1nc(N2CCN(C(=O)OC(C)(C)C)CC2C)ncc1C(N)=O (stereo not drawn) [Compound 43, Tert-Butyl 4-(5-carbamoyl-4-((2-methoxyphenyl)amino)pyrimidin-2-yl)-3-methylpiperazine-1-carboxylate]
42000	–	CNC(=O)c1cnc(N2CCN(C(=O)OC(C)(C)C)CC2C)nc1Nc1ccc(C2CC2)nc1 (stereo not drawn) [Compound 15, Tert-Butyl 4-(4-((6-cyclopropylpyridin-3-yl)amino)-5-(methylcarbamoyl)pyrimidin-2-yl)-3-methylpiperazine-1-carboxylate]
0.5	–	CNC(=O)C1CN(c2ncc(C(N)=O)c(Nc3cccc(-c4ncc(F)cn4)c3OC)n2)C1 [Compound 48, 4-((3-(5-fluoropyrimidin-2-yl)-2-methoxyphenyl)amino)-2-(3-(methylcarbamoyl)azetidin-1-yl)pyrimidine-5-carboxamide]
14000	–	CNC(=O)c1cnc(N2CCCN(C(C)=O)CC2)nc1Nc1ccc(C2CC2)nc1 [Compound 21, 2-(4-acetyl-1,4-diazepan-1-yl)-4-((6-cyclopropylpyridin-3-yl)amino)-N-methylpyrimidine-5-carboxamide]
4600	–	CNC(=O)c1cnc(N2CCCNCC2)nc1Nc1ccccc1OC [Compound 29, 2-(1,4-diazepan-1-yl)-4-((2-methoxyphenyl)amino)-N-methylpyrimidine-5-carboxamide]
1600	–	CNC(=O)c1cnc(N2CCN(C(C)=O)CC2C)nc1Nc1ccccc1OC (stereo not drawn) [Compound 23, 2-(4-acetyl-2-methylpiperazin-1-yl)-4-((2-methoxyphenyl)amino)-N-methylpyrimidine-5-carboxamide]
2500	–	CCOC(=O)C1CCN(c2ncc(C(=O)NC)c(Nc3ccc(C4CC4)nc3)n2)CC1 [Compound 20, Ethyl 1-(4-((6-cyclopropylpyridin-3-yl)amino)-5-(methylcarbamoyl)pyrimidin-2-yl)piperidine-4-carboxylate]
4900	–	CNC(=O)c1cnc(N2CCCN(C(C)=O)CC2)nc1Nc1ccccc1OC [Compound 24, 2-(4-acetyl-1,4-diazepan-1-yl)-4-((2-methoxyphenyl)amino)-N-methylpyrimidine-5-carboxamide]
710	–	NC(=O)c1cnc(N2CCC(C(=O)O)CC2)nc1Nc1ccc(C2CC2)nc1 [Compound 35, 1-(5-carbamoyl-4-((6-cyclopropylpyridin-3-yl)amino)pyrimidin-2-yl)piperidine-4-carboxylic acid]
4800	–	CNC(=O)c1cnc(N2CCNCC2C)nc1Nc1ccccc1OC (stereo not drawn) [Compound 31, 4-((2-methoxyphenyl)amino)-N-methyl-2-(2-methylpiperazin-1-yl)pyrimidine-5-carboxamide Hydrochloride]
1400	–	CC(=O)N1CCCN(c2ncc(C(N)=O)c(Nc3ccc(C4CC4)nc3)n2)CC1 [Compound 64, 2-(4-acetyl-1,4-diazepan-1-yl)-4-((6-cyclopropylpyridin-3-yl)amino)pyrimidine-5-carboxamide]
180	–	CC(=O)N1CCN(c2ncc(C(N)=O)c(Nc3ccc(C4CC4)nc3)n2)C(C)C1 (stereo not drawn) [Compound 11, 2-(4-acetyl-2-methylpiperazin-1-yl)-4-((6-cyclopropylpyridin-3-yl)amino)pyrimidine-5-carboxamide]
430	–	CNC(=O)c1cnc(N2CC[C@H](C(=O)NC)C2)nc1Nc1ccc(C2CC2)nc1 [Compound 6, (S)-4-((6-cyclopropylpyridin-3-yl)amino)-N-methyl-2-(3-(methylcarbamoyl)pyrrolidin-1-yl)pyrimidine-5-carboxamide]
160	–	O=C(NO)c1cnc(N2CCCC2)nc1Nc1ccc(C2CC2)nc1 [Compound 54, 4-((6-cyclopropylpyridin-3-yl)amino)-N-hydroxy-2-(pyrrolidin-1-yl)pyrimidine-5-carboxamide]
440	–	CNC(=O)c1cnc(N2CCN(C(=O)OC(C)(C)C)CC2C)nc1Nc1ccccc1S(C)(=O)=O (stereo not drawn) [Compound 18, Tert-Butyl 3-methyl-4-(5-(methylcarbamoyl)-4-((2-(methylsulfonyl)phenyl)amino)pyrimidin-2-yl)piperazine-1-carboxylate]
12	–	NC(=O)c1cnc(N2CCCC2)nc1Nc1ccc(C2CC2)nc1 [Compound 2, 4-((6-cyclopropylpyridin-3-yl)amino)-2-(pyrrolidin-1-yl)pyrimidine-5-carboxamide]
800	–	CC1CNCCN1c1ncc(C(N)=O)c(Nc2ccc(C3CC3)nc2)n1 (stereo not drawn) [Compound 12, 4-((6-cyclopropylpyridin-3-yl)amino)-2-(2-methylpiperazin-1-yl)pyrimidine-5-carboxamide]
–	10000	CNC(=O)c1cnc(N2CCC(C(=O)NC)C2)cc1Nc1ccc(C2CC2)nc1 (stereo not drawn) [reference compound]
19000	–	COc1ccccc1Nc1nc(N2CCCN(C(=O)OC(C)(C)C)CC2)ncc1C(N)=O [Compound 41, Tert-Butyl 4-(5-carbamoyl-4-((2-methoxyphenyl)amino)pyrimidin-2-yl)-1,4-diazepane-1-carboxylate]
0.11	–	CNC(=O)[C@@H]1CCN(c2ncc(C(N)=O)c(Nc3cccc(-c4ncc(F)cn4)c3OC)n2)C1 [Compound 53, (R)-4-((3-(5-fluoropyrimidin-2-yl)-2-methoxyphenyl)amino)-2-(3-(methylcarbamoyl)pyrrolidin-1-yl)pyrimidine-5-carboxamide]
330	–	CS(=O)(=O)c1ccccc1Nc1nc(N2CCC(C(=O)O)CC2)ncc1C(N)=O [Compound 78, 1-(5-carbamoyl-4-((2-(methylsulfonyl)phenyl)amino)pyrimidin-2-yl)piperidine-4-carboxylic Acid]
3300	–	COc1ccccc1Nc1nc(N2CCNCC2C)ncc1C(N)=O (stereo not drawn) [Compound 42, 4-((2-methoxyphenyl)amino)-2-(2-methylpiperazin-1-yl)pyrimidine-5-carboxamide hydrochloride]
4000	–	CNC(=O)c1cnc(N2CCN(C(C)=O)CC2C)nc1Nc1ccc(C2CC2)nc1 (stereo not drawn) [Compound 70, 2-(4-acetyl-2-methylpiperazin-1-yl)-4-((6-cyclopropylpyridin-3-yl)amino)-N-methylpyrimidine-5-carboxamide]
34	–	COc1c(Nc2nc(N3CCN(C(=O)OC(C)(C)C)CC3C)ncc2C(N)=O)cccc1-c1ncc(F)cn1 (stereo not drawn) [Compound 37, Tert-Butyl 4-(5-carbamoyl-4-((3-(5-fluoropyrimidin-2-yl)-2-methoxyphenyl)amino)pyrimidin-2-yl)-3-methylpiperazine-1-carboxylate]
1000	–	CC1CN(C(=O)OC(C)(C)C)CCN1c1ncc(C(N)=O)c(Nc2ccc(C3CC3)nc2)n1 (stereo not drawn) [Compound 13, Tert-Butyl 4-(S-carbamoyl-4-((6-cyclopropylpyridin-3-yl)amino)pyrimidin-2-yl)-3-methylpiperazine-1-carboxylate]
160	–	CNC(=O)c1cnc(N2CCC(C(=O)O)CC2)nc1Nc1ccccc1S(C)(=O)=O [Compound 68, 1-(5-(methylcarbamoyl)-4-((2-(methylsulfonyl)phenyl)amino)pyrimidin-2-yl)piperidine-4-carboxylic Acid]
8200	–	CNC(=O)c1cnc(N2CCC(C(=O)O)CC2)nc1Nc1ccc(C2CC2)nc1 [Compound 19, 1-(4-((6-cyclopropylpyridin-3-yl)amino)-5-(methylcarbamoyl)pyrimidin-2-yl)piperidine-4-carboxylic acid]
